The numbers were not newly measured in US20220193127A1, “IMMUNOTHERAPY FOR OPIOID ADDICTION” (Therapeutic Solutions International, Inc., priority 2020, published 2022), which cites them from elsewhere.

Each structure is given as a SMILES string.

Data set [1] has as its system dentate gyrus of the hippocampus.
In another data set the test system is microglial cells. Conditions: for development of neuropathic pain: in vivo; for microglial activation / proinflammatory cytokines: neuropathic pain.
Setting [2] is: rats fed for 6 weeks with liquid diet containing moderate doses of ethanol, vs paired controls.

Regarding `CCO` [ethanol], the “neurogenesis within the olfactory bulb” value in data set [1] (rat model of alcoholism) is given as “not affected”. Besides, in data set [1] (setting [2]), the “decrease in the number of new neurons in the dentate gyrus” value is 66.3% and the “increase in cell death in the dentate gyrus” value is 227-279%.

With `O=C(O)CC(O)(C(=O)O)C(F)C(=O)O` (stereo not drawn) [fluorocitrate], in the data set with microglial cells, the “development of neuropathic pain” value is recorded as “suppressing”, the microglial activation result was “decrease” and the proinflammatory cytokines entry is recorded as “inhibit”.

Turning to `CC(=O)CCCCn1c(=O)c2c(ncn2C)n(C)c1=O` [pentoxifylline], in the data set with microglial cells, the “development of neuropathic pain” value is reported as “suppressing”, the microglial activation entry is listed as “decrease” and the proinflammatory cytokines entry is listed as “inhibit”.

Regarding `CCCn1cnc2c1c(=O)n(CCCCC(C)=O)c(=O)n2C` [propentofylline], in the data set on microglial cells, the “development of neuropathic pain” value is “suppressing”, the microglial activation result is recorded as “decrease” and the proinflammatory cytokines result is recorded as “inhibit”.
